Common to all, as to type: functional
In test [1] the target is T1, High affinity choline transporter 1 (Homo sapiens, UniProt Q9GZV3).
T1 sequence (Q9GZV3 whole entry): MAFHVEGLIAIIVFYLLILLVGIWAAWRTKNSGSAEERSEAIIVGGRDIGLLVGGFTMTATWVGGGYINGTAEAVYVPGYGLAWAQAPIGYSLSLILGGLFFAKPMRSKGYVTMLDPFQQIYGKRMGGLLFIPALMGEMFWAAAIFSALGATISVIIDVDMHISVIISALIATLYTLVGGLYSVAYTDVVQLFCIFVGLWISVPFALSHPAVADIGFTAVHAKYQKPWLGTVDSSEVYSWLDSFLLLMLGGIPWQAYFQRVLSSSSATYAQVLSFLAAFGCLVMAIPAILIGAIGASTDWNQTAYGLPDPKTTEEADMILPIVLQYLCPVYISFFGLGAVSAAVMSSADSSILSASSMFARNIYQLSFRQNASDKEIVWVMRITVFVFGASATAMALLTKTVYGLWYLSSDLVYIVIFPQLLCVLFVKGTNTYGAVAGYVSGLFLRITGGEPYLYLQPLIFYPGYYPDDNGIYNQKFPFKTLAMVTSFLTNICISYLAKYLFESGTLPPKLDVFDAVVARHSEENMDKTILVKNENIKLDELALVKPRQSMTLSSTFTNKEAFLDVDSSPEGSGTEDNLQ
Kind of test: human choline transporter blockers, potency – cell-based, 5-point CRC, membrane potential dye, dose response (AID 504840).

The target of test [2] is T1, High affinity choline transporter 1. Kind of test: human choline transporter blockers, potency – cell-based, 10-point CRC, membrane potential dye, dose response (AID 588401).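 Further: membrane potential dye fluorescence of choline-evoked depolarization via CHT.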
The target in test [3] is T2, Carboxy-terminal domain RNA polymerase II polypeptide A small phosphatase 1 (Homo sapiens, UniProt Q9GZU7).
T2 sequence (Q9GZU7 whole entry): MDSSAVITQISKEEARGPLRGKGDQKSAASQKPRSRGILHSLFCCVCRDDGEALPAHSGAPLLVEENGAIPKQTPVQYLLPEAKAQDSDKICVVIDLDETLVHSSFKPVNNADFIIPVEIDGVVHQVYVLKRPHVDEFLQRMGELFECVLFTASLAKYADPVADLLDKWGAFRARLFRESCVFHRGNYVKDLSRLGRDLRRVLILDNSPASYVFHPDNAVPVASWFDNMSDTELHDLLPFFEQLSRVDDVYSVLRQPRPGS
As to the kind of experiment: CTDSP1 inhibitors, concentration-response, biochemical, absorbance readout, ultra-high-throughput screen actives (AID 540297).

The target of another test is Phospholipase A2 (Homo sapiens, UniProt P04054).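 Further: confirmatory dose-response counterscreen on phospholipase A2, testing hits that came from an ultra-high-throughput screen for ATG4B inhibitors.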
Phospholipase A2, sequence (P04054 whole entry): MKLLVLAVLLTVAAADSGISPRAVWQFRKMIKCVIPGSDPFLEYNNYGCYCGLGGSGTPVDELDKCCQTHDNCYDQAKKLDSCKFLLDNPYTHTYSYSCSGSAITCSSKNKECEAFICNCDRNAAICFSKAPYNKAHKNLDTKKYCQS
In a further test the target is T3, Leucine aminopeptidase (Plasmodium falciparum 3D7, UniProt Q8IL11).
T3 sequence (Q8IL11 whole entry): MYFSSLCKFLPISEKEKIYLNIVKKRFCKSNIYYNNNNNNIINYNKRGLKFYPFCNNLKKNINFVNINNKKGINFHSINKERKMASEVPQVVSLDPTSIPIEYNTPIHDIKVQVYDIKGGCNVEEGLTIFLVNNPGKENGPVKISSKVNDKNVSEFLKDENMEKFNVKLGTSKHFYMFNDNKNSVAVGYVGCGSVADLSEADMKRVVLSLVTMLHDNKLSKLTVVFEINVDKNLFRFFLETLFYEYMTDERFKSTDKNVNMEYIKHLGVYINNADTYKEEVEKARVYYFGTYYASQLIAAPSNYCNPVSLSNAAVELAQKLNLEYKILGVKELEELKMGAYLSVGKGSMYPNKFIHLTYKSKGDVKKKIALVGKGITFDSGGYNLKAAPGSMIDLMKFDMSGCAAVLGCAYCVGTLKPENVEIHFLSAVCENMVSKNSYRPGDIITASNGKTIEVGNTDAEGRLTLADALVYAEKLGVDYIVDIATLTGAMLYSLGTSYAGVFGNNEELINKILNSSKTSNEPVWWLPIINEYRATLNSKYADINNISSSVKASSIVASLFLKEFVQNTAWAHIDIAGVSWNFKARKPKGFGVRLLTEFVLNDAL
Kind of test: P. falciparum M17LAP inhibitors, primary screen, biochemical, fluorogenic H-Leu-NHMec substrate, 1536-well (AID 1619).

The next test has as its target T4, Cysteine protease ATG4B (Homo sapiens, UniProt Q9Y4P1).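 Further: Fluorescence-based dose-response confirmation assay measuring inhibition of ATG4B activity.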
T4 sequence (Q9Y4P1 whole entry): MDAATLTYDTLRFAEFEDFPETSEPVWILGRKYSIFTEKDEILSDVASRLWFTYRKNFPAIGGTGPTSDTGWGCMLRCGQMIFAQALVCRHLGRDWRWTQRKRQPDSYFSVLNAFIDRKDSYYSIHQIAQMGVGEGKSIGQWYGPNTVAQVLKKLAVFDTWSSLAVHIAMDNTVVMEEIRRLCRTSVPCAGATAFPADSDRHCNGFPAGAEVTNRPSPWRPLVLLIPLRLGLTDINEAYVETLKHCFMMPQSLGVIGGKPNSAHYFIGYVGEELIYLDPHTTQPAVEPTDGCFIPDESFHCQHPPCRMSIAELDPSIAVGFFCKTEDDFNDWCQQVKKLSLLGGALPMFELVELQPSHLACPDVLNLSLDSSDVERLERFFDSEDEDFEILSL

For test [4], the target named is T5, Sentrin-specific protease 8 (Homo sapiens, UniProt Q96LD8).
T5 sequence (Q96LD8 whole entry): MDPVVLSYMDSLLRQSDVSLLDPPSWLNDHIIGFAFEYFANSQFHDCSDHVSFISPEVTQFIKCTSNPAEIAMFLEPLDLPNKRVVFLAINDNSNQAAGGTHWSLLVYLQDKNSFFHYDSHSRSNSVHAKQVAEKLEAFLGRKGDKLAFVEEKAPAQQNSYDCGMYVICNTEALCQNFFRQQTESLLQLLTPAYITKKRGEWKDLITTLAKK

The target of test [5] is T6, Sentrin-specific protease 6 (Homo sapiens, UniProt Q9GZR1).
T6 sequence (Q9GZR1 whole entry): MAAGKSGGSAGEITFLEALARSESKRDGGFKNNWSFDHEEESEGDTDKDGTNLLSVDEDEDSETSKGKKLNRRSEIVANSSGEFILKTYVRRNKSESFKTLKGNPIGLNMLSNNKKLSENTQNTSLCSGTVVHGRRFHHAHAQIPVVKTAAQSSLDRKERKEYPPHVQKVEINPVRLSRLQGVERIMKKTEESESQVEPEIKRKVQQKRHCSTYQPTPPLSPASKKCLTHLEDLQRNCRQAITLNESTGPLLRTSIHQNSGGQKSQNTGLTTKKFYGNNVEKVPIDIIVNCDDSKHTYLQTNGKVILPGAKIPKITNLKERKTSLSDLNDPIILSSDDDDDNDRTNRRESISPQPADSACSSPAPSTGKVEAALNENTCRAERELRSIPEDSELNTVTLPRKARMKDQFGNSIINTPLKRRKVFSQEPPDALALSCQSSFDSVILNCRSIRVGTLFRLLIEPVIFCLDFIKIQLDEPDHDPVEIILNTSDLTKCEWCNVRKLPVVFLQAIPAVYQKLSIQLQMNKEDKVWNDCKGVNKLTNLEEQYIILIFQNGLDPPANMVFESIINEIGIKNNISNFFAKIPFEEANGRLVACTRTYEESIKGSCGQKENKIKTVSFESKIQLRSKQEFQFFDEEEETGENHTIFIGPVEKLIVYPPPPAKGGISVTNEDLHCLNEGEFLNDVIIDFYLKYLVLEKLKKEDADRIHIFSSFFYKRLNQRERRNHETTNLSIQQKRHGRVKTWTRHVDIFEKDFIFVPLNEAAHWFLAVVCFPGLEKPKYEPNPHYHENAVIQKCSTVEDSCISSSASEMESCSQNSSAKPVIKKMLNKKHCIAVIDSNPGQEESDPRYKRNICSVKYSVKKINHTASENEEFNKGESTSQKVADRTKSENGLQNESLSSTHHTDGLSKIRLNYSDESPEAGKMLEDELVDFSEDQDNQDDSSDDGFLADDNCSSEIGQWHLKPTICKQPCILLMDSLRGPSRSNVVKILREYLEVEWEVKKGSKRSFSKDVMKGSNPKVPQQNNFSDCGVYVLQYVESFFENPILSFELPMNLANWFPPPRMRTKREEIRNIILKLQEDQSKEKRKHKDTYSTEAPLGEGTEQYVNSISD
Kind of test: SAR Analysis of small molecule inhibitors of Sentrin-specific protease 6 (SENP6) using a Luminescent assay. [Related pubchem assays (depositor defined):AID2582, AID2599].

Test [6] has as its target T7, Sentrin-specific protease 7 (Homo sapiens, UniProt Q9BQF6).
T7 sequence (Q9BQF6 whole entry): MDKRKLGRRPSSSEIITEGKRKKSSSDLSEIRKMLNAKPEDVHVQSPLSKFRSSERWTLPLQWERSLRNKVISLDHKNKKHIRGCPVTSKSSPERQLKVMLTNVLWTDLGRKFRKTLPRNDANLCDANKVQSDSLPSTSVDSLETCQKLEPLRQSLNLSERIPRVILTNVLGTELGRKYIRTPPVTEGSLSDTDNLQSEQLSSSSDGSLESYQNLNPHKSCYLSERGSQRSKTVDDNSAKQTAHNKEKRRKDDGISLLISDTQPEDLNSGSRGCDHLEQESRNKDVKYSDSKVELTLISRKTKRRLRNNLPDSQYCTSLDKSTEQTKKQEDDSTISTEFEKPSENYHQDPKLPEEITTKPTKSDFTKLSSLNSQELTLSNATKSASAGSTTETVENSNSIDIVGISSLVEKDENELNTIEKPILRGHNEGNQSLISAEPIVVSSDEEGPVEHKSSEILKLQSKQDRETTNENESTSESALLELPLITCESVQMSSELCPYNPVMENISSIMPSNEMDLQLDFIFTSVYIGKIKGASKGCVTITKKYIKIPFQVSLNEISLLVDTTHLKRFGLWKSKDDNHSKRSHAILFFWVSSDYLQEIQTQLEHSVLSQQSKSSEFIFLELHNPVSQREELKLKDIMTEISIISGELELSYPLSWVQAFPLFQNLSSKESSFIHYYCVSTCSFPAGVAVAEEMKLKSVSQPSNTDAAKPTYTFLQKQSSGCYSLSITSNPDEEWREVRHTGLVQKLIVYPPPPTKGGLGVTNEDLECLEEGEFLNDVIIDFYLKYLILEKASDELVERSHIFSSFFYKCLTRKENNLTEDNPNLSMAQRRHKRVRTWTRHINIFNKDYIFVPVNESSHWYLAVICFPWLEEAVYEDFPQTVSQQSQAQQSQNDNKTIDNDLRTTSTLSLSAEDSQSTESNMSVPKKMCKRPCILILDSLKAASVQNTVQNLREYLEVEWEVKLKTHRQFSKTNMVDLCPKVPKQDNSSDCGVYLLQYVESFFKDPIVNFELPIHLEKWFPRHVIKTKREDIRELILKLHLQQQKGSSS

The nature of test [7]: Luminescence Cell-Based Dose Confirmation HTS to Identify Activators of 5'UTR Stem-Loop Driven Alpha-Synuclein mRNA Translation in H4 Neuroglioblastoma Cells. [Related pubchem assays: 1829 (Project Summary), 1814 (Primary HTS)].
Test [8] concerns the target T8, Caspase-3 (Homo sapiens, UniProt P42574).
T8 sequence (P42574 whole entry): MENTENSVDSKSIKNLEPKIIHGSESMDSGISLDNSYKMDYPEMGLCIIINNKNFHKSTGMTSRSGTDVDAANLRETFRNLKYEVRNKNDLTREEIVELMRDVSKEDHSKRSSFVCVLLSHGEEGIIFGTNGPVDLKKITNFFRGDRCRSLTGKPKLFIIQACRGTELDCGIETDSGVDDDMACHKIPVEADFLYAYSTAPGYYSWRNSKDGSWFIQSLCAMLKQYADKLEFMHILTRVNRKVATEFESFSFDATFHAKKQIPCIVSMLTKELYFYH

Test [9] addresses T8, Caspase-3. Kind of test: SAR Analysis of small molecule inhibitors of Sentrin-specific proteases (SENPs) using a Caspase-3 Selectivity assay. [Related pubchem assays (depositor defined):AID2540, AID2599, AID434973, AID489001].
Test [10] concerns the target T5, Sentrin-specific protease 8. As to the kind of experiment: inhibition of human SENP8 cleavage activity – biochemical, luminescence, SAR follow-up (AID 504501).
The test system of a further test is H4. As to the kind of experiment: Luminescence Cell-Based Dose Response HTS to Identify Activators of 5'UTR Stem-Loop Driven Prion Protein mRNA Translation in H4 Neuroglioblastoma Cells. [Related pubchem assays: 1829 (Project Summary), 1814 (Primary HTS)]. To be noted: Homo sapiens.
Test [11] addresses T6, Sentrin-specific protease 6.
For test [12], the target named is T7, Sentrin-specific protease 7. As to the kind of experiment: inhibition of human SENP7 cleavage activity – biochemical, luminescence, SAR follow-up (AID 504497).

Here are results for 5 compounds from ChEMBL document CHEMBL1201862, “PubChem BioAssay data set” (2004).

SMILES strings stand for the structures. Activity calls are given as the source filed them. For most assays here, no stated cut-off is given here; in the data, actives have a measured IC50 and inactives only a lower limit.

For `O=C(COc1ccccc1Br)c1ccc(O)cc1O`, the IC50 (as a rule, the concentration at which inhibition is half-maximal) in test [1] is 2.29 µM (active); in [2], 11.2 µM (active).

In the case of `CCOC(=O)c1ccc(/C=C2/C=C(c3ccccc3)N(c3ccc(Cl)c(C(=O)O)c3)C2=O)cc1`, the IC50 in test [3] is 5.15 µM (active); on Phospholipase A2 it was 8.04 µM (active); on Leucine aminopeptidase, 29.5 µM (active); on Cysteine protease ATG4B, 12.3 µM (active).

As to `CC(C)(C)NCC(O)Cn1cc(C=O)c2ccccc21` (configuration not stated), the figures for the concentration for half-maximal inhibition (IC50) in [1] and in test [2] were 0.738 µM (active) and 0.113 µM (active), respectively.

Take `O=C(O)c1ccc(N/N=C/c2cn(Cc3ccc(F)cc3)c3ccccc23)cc1`: the IC50 in test [4] was 12.4 µM (active); in [5], 6.8 µM (active); in test [6], 8.78 µM (active); on Caspase-3 [8], 89.1 µM (active); on Caspase-3 [9], 49.8 µM (active); in test [10] it was 6.77 µM (active). In addition, the IC50 in [11] was 7.91 µM (active); in [12], 5.08 µM (active). For the same compound, the EC50 (in [7]; with H4) was > 120 µM (not active) throughout.

Regarding `C(=N\Nc1ccccc1)/c1c[nH]c2ccccc12`, the IC50 in test [5] was > 99 µM (inactive); at Caspase-3 [9], > 99 µM (inactive); in [10], > 99 µM (inactive); in [12], 25.7 µM (active).
